{
  "source": "patent US12611415B2",
  "about": "“Methods and compounds for treatment of metabolic disease” (Monash University, priority 2019, dated 2026)",
  "key": {"VEGF receptor (VEGFR)-3": {"target": "T1, VEGF receptor (VEGFR)-3 (Homo sapiens, UniProt P35916)", "T1 construct": "host or cells: endothelial cell lines, including cultured lymphatic endothelial cell lines", "T1 sequence (P35916 25-1363)": "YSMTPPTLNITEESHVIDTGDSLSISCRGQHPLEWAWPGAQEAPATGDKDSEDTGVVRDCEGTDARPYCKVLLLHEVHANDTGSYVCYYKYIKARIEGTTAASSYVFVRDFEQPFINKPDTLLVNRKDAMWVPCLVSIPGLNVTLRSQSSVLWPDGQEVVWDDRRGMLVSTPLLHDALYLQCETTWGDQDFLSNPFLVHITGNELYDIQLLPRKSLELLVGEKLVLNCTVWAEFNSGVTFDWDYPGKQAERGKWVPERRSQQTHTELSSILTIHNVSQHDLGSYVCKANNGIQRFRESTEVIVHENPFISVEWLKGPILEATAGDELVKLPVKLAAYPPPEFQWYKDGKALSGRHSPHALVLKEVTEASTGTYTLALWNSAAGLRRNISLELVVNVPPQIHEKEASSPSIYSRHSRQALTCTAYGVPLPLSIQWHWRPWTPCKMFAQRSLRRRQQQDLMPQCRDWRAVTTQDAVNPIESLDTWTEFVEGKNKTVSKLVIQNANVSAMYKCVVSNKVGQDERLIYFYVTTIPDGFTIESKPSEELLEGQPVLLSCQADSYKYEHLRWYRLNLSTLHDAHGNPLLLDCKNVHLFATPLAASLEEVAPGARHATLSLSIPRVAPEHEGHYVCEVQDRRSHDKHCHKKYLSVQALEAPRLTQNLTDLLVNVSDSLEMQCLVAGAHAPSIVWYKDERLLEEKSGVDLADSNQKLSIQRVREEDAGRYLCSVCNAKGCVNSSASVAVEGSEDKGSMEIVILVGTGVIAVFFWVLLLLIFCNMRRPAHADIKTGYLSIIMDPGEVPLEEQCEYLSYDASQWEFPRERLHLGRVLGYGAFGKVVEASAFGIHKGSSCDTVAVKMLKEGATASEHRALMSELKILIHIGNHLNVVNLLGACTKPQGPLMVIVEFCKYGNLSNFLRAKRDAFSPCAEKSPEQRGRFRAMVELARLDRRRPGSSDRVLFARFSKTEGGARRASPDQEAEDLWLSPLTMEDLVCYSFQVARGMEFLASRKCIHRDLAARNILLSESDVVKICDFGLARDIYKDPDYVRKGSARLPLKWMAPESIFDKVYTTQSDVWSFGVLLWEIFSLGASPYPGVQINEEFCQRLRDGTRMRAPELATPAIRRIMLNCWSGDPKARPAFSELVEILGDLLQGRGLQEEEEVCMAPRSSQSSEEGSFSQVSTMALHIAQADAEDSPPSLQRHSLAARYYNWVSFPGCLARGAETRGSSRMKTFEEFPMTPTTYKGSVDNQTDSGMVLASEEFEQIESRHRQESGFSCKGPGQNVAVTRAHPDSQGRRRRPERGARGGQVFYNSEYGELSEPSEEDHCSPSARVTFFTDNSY", "conditions": "endothelial cell lines, including cultured lymphatic endothelial cell lines; cited from earlier work"}, "[1]": {"tested_on": "LECs from adult human skin (HMLEC-dLyAd)", "experiment": "Lymphatic endothelial cell (LEC) migration scratch assay with HFD-lymph", "type": "cell-based", "conditions": "2% HFD-lymph; celecoxib 20 μM, MAZ51 5 μM", "procedure": "LECs from adult human skin (HMLEC-dLyAd) were obtained from Lonza (Australia) at the 3rd passage. Cells were thawed and expanded in a T-75 flask at a minimum density of 500,000 cells per flask. Cells were grown in EGM-2MV BulletKit™ medium (CC-3162, Lonza, Australia), which consisted of EBM-2 basal medium supplemented with an EGM-2 SingleQuots™ kit (Lonza, Australia). Flasks were incubated at 37° C. and 5% CO2, and media was changed 24 h after seeding and then every 48 h. Cells were grown to 70-80% confluence and split every 4-5 days. For all experiments, cells were seeded onto plates or coverslips pre-coated with rat tail collagen Type I (50 μg/ml) for 1 h at 37° C. Cells were allowed to grow to 100% confluence (which typically occurred 1.5-2 days after seeding in a cell culture plate) prior to the start of experiments.\nOnce the LECs reached confluence, the impact of lymph fluid on LEC migration was assessed using a standard scratch assay. […]\nImages taken at several time points after wounding (0, 12 and 24 hours) were analyzed using the Fiji distribution of ImageJ to determine the rate of LEC migration over the area of the scratched wound. To enable quantification of the area of the scratch wound, the brightness and contrast of the images was first adjusted to improve the visibility. An outline of the wound was manually drawn and the area of the wound was quantified at each time point. […]"}},
  "data": [
    {"smiles": "CN(C)c1ccc(/C=C2/C(=O)Nc3ccccc32)c2ccccc12", "note": "[MAZ51]", "values": [
      {"measurement": "VEGF-C-dependent and VEGF-C-independent VEGFR-3 phosphorylation", "setting": "VEGF receptor (VEGFR)-3", "result": "potently inhibit"},
      {"measurement": "LEC migration induced by HFD-lymph", "setting": "[1]", "result": "inhibited"}
    ]}
  ]
}
